Results from the supplement of paper PMC10307832.

Key:
Assay in all cases: relative viability (nuclei count vs DMSO), 5 days (fraction); higher = more cells survive
Darinaparsin + OSI-027 = compound: C[As](C)SC[C@H](NC(=O)CC[C@H](N)C(=O)O)C(=O)NCC(=O)O [Darinaparsin] + COc1cccc2cc(-c3nc([C@H]4CC[C@H](C(=O)O)CC4)n4ncnc(N)c34)[nH]c12 [OSI-027] (partner 0.5 µM)
In short: (§1)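 Medians of duplicate plates are given as relative viability. That measure is the nuclei count in treated wells divided by the count in vehicle wells. Counts were taken on 4× images of lung cancer cell lines in 1536-well plates, 5 days after pin-tool dosing the day after seeding with one drug alone or a fixed anchor-drug dose plus five library-drug doses (not always all listed) in √10 steps.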

Darinaparsin + AZD7762 = compound: C[As](C)SC[C@H](NC(=O)CC[C@H](N)C(=O)O)C(=O)NCC(=O)O [Darinaparsin] + NC(=O)Nc1cc(-c2cccc(F)c2)sc1C(=O)N[C@H]1CCCNC1 [AZD7762] (partner 0.2 µM)
In short: as §1

[1] = compound: C[As](C)SC[C@H](NC(=O)CC[C@H](N)C(=O)O)C(=O)NCC(=O)O [Darinaparsin] + Nc1nc2[nH]cc(CCc3ccc(C(=O)N[C@@H](CCC(=O)O)C(=O)O)cc3)c2c(=O)[nH]1 [Pemetrexed] (partner 0.2 µM)
In short: as §1

AZ628 + Linsitinib = compound: CC1=C(C=C(C=C1)NC(=O)C2=CC(=CC=C2)C(C)(C)C#N)NC3=CC4=C(C=C3)N=CN(C4=O)C [AZ628] + C[C@]1(O)C[C@@H](c2nc(-c3ccc4ccc(-c5ccccc5)nc4c3)c3c(N)nccn32)C1 [Linsitinib] (partner 1 µM)
In short: as §1

Cell Line | relative viability (Darinaparsin + OSI-027; first compound 0.08 µM) | relative viability (Darinaparsin + OSI-027; first compound 0.8 µM) | relative viability (Darinaparsin + OSI-027; first compound 2.53 µM) | relative viability (Darinaparsin + OSI-027; first compound 8 µM) | relative viability (Darinaparsin + AZD7762; first compound 0.08 µM) | relative viability (Darinaparsin + AZD7762; first compound 0.8 µM) | relative viability (Darinaparsin + AZD7762; first compound 8 µM) | relative viability ([1]; first compound 0.08 µM) | relative viability ([1]; first compound 0.8 µM) | relative viability ([1]; first compound 8 µM) | relative viability (AZ628 + Linsitinib; first compound 0.08 µM) | relative viability (AZ628 + Linsitinib; first compound 0.253 µM) | relative viability (AZ628 + Linsitinib; first compound 0.8 µM) | relative viability (AZ628 + Linsitinib; first compound 2.53 µM) | relative viability (AZ628 + Linsitinib; first compound 8 µM) | relative viability (Darinaparsin + AZD7762; first compound 2.53 µM) | relative viability ([1]; first compound 2.53 µM)
NCI-H1792 | 0.847 | 0.604 | 0.866 | 0.96 | 0.697 | 0.624 | 0.797 | 1.14 | 0.829 | 0.921 | 0.583 | 0.54 | 0.435 | 0.48 | 0.339 | – | –
NCI-H1793 | 0.329 | 0.254 | 0.27 | 0.309 | 0.581 | 0.553 | 0.536 | 1.01 | 0.89 | 1.05 | 1.32 | 1.11 | 1.09 | 0.687 | 0.602 | – | –
NCI-H1915 | 0.741 | 0.649 | 0.644 | 0.749 | 0.768 | 0.738 | 0.729 | 0.495 | 0.446 | 0.662 | 1.08 | 1.11 | 1.07 | 0.85 | 0.683 | 0.674 | 0.494
NCI-H1944 | 0.413 | 0.372 | 0.399 | 0.437 | 0.469 | 0.518 | 0.427 | 0.663 | 0.687 | 0.57 | 1.21 | 1.14 | 0.987 | 0.876 | 0.703 | 0.527 | 0.649
NCI-H1975 | 0.971 | 0.742 | 0.544 | 0.961 | 0.751 | 0.684 | 0.741 | 0.328 | 0.301 | 0.319 | 0.908 | 0.949 | 0.895 | 0.904 | 0.647 | 0.662 | 0.291
NCI-H1993 | 0.542 | 0.527 | 0.493 | 0.551 | 0.965 | 0.723 | 0.84 | 0.617 | 0.66 | 0.64 | 0.761 | 0.59 | 0.716 | 0.824 | 0.711 | 0.628 | 0.599
NCI-H2085 | 0.778 | 0.806 | 0.762 | 0.673 | 0.91 | 0.934 | 1.17 | 0.881 | 0.962 | 0.961 | 0.851 | 0.939 | 0.972 | 0.879 | 0.781 | 0.892 | 0.854
NCI-H2087 | 0.604 | 0.67 | 0.527 | 0.705 | 1.41 | 1.45 | 1.75 | 0.656 | 0.671 | 0.616 | 0.818 | 0.613 | 0.728 | 0.65 | 0.343 | 1.39 | 0.667
NCI-H2126 | 0.726 | 0.764 | 0.635 | 0.639 | 1.14 | 1.03 | 1.14 | 0.74 | 0.594 | 0.805 | 0.762 | 0.746 | 0.776 | 0.721 | 0.664 | 0.917 | 0.666
NCI-H2347 | 0.398 | – | 0.424 | 0.407 | 0.668 | 0.583 | 0.871 | 0.444 | 0.396 | 0.477 | 0.719 | 0.928 | 0.741 | 0.792 | 0.639 | 0.734 | 0.408
NCI-H2405 | 0.629 | 0.614 | 0.545 | 0.658 | 1.04 | 0.666 | 0.817 | 1.24 | 0.872 | 1.14 | 0.463 | 0.646 | 0.477 | 0.387 | 0.409 | 0.68 | 1.07
NCI-H3122 | 1.21 | 1 | 0.95 | 1.14 | 1.14 | 1 | 1.34 | 0.195 | 0.193 | 0.222 | 0.931 | 0.83 | 0.686 | 0.701 | 0.388 | 0.937 | 0.197
PC-3 [JPC-3] | 0.844 | 0.781 | 0.734 | 0.788 | 0.972 | 0.807 | 0.85 | 1.43 | 1.02 | 1.04 | 0.893 | 0.971 | 1.01 | 1.04 | 0.952 | 0.668 | 1.04
PC-14 | 1.09 | 0.697 | 0.704 | 1.26 | 0.481 | 0.361 | 0.379 | 0.134 | 0.131 | 0.143 | 0.946 | 0.862 | 0.946 | 0.981 | 0.703 | 0.422 | 0.128
RERF-LC-KJ | 0.592 | 0.574 | 0.527 | 0.596 | 0.92 | 0.989 | 1.19 | 0.513 | 0.441 | 0.484 | 0.799 | 0.874 | 0.841 | 0.855 | 0.7 | 0.865 | 0.448
